Converted amounts (≈) assume the structure as drawn. One block for each molecule: values may come before it.
Tests used:
[1] = target: T1, Mitogen-activated protein kinase kinase kinase 5 (Homo sapiens, UniProt Q99683); assay: Inhibition of stress-activated full length recombinant human N-terminal GST-tagged ASK1 expressed in baculovirus expression system using MKK6 as substrate pretreated for 10 mins followed by substrate addition by Alphascreen assay
T1 sequence (Q99683 whole entry): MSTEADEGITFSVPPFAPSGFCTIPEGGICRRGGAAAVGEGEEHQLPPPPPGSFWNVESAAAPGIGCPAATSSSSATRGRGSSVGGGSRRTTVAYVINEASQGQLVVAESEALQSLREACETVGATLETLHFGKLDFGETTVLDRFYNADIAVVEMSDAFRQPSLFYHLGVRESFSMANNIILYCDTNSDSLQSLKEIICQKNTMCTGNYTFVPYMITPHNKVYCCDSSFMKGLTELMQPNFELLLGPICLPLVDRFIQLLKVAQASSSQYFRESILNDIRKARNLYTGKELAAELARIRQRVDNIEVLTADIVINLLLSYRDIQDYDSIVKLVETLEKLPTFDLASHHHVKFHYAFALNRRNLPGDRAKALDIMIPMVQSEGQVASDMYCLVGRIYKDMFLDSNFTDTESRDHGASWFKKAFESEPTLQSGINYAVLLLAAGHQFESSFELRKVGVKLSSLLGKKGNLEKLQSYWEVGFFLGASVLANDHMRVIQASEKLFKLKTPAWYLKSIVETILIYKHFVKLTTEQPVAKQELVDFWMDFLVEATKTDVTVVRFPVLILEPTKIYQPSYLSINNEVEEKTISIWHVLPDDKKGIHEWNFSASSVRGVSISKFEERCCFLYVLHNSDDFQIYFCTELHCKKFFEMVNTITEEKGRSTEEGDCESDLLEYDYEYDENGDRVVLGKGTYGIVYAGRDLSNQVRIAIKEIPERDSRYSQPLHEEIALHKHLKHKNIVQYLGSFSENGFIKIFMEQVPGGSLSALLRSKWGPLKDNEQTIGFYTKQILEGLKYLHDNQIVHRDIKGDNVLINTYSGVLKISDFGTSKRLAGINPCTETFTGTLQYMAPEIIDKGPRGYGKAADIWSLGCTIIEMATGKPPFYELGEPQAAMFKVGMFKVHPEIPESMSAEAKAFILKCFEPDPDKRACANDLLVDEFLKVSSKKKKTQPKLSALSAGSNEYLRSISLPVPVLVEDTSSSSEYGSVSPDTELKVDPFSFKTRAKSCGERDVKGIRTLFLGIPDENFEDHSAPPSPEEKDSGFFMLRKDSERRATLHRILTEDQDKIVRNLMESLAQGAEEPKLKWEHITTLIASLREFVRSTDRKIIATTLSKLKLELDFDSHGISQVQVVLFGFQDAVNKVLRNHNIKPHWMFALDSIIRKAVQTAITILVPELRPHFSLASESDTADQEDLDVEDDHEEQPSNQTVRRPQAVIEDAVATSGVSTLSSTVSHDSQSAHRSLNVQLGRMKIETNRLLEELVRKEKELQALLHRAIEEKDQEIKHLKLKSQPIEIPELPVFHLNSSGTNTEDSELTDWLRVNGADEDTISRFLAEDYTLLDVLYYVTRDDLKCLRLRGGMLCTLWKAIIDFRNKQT

[2] = Solubility of the compound in phosphate buffered saline at pH 7.4; type: physicochemical; settings: buffer
[3] = Stability in human liver microsomes; type: ADME, microsome; settings: read-out: Stability
[4] = Stability in mouse liver microsomes; type: ADME, microsome; settings: read-out: Stability
[5] = Stability in rat liver microsomes; type: ADME, microsome; settings: read-out: Stability
CYP1A2 = target: T2, CYP1A2 (Homo sapiens, UniProt P05177); assay: Inhibition of CYP1A2 (unknown origin) at 10 uM relative to control; type: ADME
T2 sequence (P05177 whole entry): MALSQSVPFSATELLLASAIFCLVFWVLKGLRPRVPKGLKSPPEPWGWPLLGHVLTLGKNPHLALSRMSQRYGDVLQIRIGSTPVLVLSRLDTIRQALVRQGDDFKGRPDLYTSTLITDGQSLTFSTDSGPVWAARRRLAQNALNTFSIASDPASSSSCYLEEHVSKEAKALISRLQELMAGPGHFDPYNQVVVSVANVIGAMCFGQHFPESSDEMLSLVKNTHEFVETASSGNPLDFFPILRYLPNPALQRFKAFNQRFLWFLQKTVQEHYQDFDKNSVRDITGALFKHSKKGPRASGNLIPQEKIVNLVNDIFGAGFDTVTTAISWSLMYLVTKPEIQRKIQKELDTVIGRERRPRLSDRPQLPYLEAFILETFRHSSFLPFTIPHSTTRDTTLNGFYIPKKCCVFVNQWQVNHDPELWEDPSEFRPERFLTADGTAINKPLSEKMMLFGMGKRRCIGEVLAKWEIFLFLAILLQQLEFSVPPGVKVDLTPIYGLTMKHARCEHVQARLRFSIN

CYP2C9 = CYP2C9 (Homo sapiens, UniProt P11712); assay: Inhibition of CYP2C9 (unknown origin) at 10 uM relative to control; type: ADME
Sequence of CYP2C9 (P11712 whole entry): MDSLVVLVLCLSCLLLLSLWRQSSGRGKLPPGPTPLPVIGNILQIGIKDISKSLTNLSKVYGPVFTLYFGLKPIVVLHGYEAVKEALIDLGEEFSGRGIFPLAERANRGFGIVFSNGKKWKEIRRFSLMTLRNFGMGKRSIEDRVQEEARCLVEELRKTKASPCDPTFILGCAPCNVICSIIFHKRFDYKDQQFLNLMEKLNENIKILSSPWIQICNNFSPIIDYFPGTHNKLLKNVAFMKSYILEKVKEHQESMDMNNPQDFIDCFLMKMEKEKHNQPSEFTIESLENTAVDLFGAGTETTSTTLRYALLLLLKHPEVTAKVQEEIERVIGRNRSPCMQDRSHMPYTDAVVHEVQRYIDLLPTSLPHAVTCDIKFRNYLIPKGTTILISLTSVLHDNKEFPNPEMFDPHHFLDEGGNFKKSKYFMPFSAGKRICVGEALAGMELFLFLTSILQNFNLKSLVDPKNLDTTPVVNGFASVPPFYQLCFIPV

CYP2D6 = CYP2D6 (Homo sapiens, UniProt P10635); assay: Inhibition of CYP2D6 (unknown origin) at 10 uM relative to control; type: ADME
Sequence of CYP2D6 (P10635 whole entry): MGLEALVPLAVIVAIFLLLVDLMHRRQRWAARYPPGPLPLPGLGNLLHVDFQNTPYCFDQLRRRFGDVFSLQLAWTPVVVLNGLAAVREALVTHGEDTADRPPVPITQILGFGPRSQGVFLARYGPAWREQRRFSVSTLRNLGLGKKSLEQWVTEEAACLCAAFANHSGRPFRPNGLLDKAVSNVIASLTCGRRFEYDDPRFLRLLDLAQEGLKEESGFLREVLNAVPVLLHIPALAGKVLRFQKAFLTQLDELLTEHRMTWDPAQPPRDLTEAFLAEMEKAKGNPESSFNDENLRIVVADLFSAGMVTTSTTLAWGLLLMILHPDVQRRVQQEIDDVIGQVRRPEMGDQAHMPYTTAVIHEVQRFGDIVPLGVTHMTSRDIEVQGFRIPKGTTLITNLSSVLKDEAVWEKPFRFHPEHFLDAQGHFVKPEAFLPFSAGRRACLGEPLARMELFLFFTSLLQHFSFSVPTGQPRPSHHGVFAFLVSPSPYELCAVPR

CYP3A4 = CYP3A4 (Homo sapiens, UniProt P08684); assay: Inhibition of CYP3A4 (unknown origin) at 10 uM relative to control; type: ADME
Sequence of CYP3A4 (P08684 whole entry): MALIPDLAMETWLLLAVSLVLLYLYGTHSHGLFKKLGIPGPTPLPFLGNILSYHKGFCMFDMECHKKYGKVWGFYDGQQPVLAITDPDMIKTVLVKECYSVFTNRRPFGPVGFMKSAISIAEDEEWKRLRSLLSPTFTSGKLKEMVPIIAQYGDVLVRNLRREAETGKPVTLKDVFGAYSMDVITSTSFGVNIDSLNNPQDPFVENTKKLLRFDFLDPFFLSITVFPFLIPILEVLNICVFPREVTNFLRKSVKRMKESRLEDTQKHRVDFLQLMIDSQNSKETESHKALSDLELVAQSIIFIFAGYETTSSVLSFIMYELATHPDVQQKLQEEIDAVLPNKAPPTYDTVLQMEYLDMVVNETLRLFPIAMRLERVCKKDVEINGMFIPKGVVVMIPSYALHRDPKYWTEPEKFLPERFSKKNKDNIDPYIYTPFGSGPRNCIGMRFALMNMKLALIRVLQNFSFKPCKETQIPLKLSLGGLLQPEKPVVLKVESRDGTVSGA

[6] = compound: CC(=O)Nc1cccc(Nc2ncc3ccccc3n2)c1; assay: ATP-competitive inhibition of full length recombinant human N-terminal GST-tagged ASK1 expressed in baculovirus expression system assessed as Km for substrate at 2 uM using MKK6 as substrate by Lineweaver-burk plot analysis (reference value: 6.08 +/- 0.4093 10^-6 M)
[7] = compound: CC(=O)Nc1cccc(Nc2ncc3ccccc3n2)c1; assay: ATP-competitive inhibition of full length recombinant human N-terminal GST-tagged ASK1 expressed in baculovirus expression system assessed as Km for substrate at 1 uM using MKK6 as substrate by Lineweaver-burk plot analysis (reference value: 6.08 +/- 0.4093 10^-6 M)
[8] = compound: CC(=O)Nc1cccc(Nc2ncc3ccccc3n2)c1; assay: ATP-competitive inhibition of full length recombinant human N-terminal GST-tagged ASK1 expressed in baculovirus expression system assessed as Km for substrate at 0.5 uM using MKK6 as substrate by Lineweaver-burk plot analysis (reference value: 6.08 +/- 0.4093 10^-6 M)

Molecule: Nc1cccc(Nc2ncc3cc(Br)ccc3n2)c1
IC50 [1]: > 10 µM

Molecule: Fc1ccc(Nc2ncnc3[nH]cnc23)cc1
IC50 [1]: > 10 µM

Molecule: CN(C)c1cccc(Nc2nccc(NCCOc3ccccc3)n2)c1
IC50 [1]: 2 µM

Molecule: c1ccc(Nc2ncnc3nc[nH]c23)cc1
IC50 [1]: > 10 µM

Molecule: Nc1cccc(Nc2ncc3ccccc3n2)c1
IC50 [1]: > 10 µM

Molecule: Fc1ccc(Nc2ncc3cc(Br)ccc3n2)cc1
IC50 [1]: > 10 µM

Molecule: Clc1cccc(Nc2ncc3ccccc3n2)c1
IC50 [1]: > 10 µM

Molecule: CC(=O)Nc1cccc(Nc2ncnc3[nH]cnc23)c1
IC50 [1]: > 10 µM

Molecule: Nc1cccc(Nc2ncc3cc(-c4cn[nH]c4)ccc3n2)c1
IC50 [1]: 0.6 µM | solubility [2]: 17 µM (≈ 5.14 µg/mL) | half-life [3]: 29 min | half-life [4]: 2 min | half-life [5]: 3 min | inhibition at 10 µM (CYP1A2): 67% | inhibition at 10 µM (CYP2C9): 93% | inhibition at 10 µM (CYP2D6): 56% | inhibition at 10 µM (CYP3A4): 52%

Molecule: CN(C)c1cccc(Nc2ncnc3[nH]cnc23)c1
IC50 [1]: > 10 µM

Molecule: CC(=O)Nc1cccc(Nc2ncc3cc(Br)ccc3n2)c1
IC50 [1]: > 10 µM

Molecule: c1ccc(Nc2ncc3ccccc3n2)cc1
IC50 [1]: > 10 µM

Molecule: Fc1ccc(Nc2ncc3ccccc3n2)cc1
IC50 [1]: > 10 µM

Molecule: Clc1cccc(Nc2ncnc3[nH]cnc23)c1
IC50 [1]: > 10 µM

Molecule: Brc1ccc2nc(Nc3ccccc3)ncc2c1
IC50 [1]: > 10 µM

Molecule: Nc1cccc(Nc2ncc3cc(-c4cccc(N)c4)ccc3n2)c1
IC50 [1]: > 10 µM

B1: Mitogen-activated protein kinase kinase kinase 5 (Homo sapiens), Q99683 (protein)
chain: T1 sequence (Q99683 whole entry)
Km [6]: 9.3 µM | Km [7]: 7.79 µM | Km [8]: 7.01 µM

Second part, the molecule after the results:

IC50 [1]: > 10 µM
Molecule: CC(=O)Nc1cccc(Nc2ncc3cc(-c4cnn(C)c4)ccc3n2)c1

IC50 [1]: > 10 µM
Molecule: Cn1cc(-c2ccc3nc(Nc4ccccc4)ncc3c2)cn1

IC50 [1]: > 10 µM
Molecule: c1ccc(Nc2ncc3cc(-c4cn[nH]c4)ccc3n2)cc1

IC50 [1]: > 10 µM
Molecule: Nc1cccc(-c2ccc3nc(Nc4ccccc4)ncc3c2)c1

IC50 [1]: > 10 µM
Molecule: CC(=O)Nc1cccc(Nc2ncc3cc(-c4cccc(N)c4)ccc3n2)c1

IC50 [1]: > 10 µM
Molecule: Cn1cc(-c2ccc3nc(Nc4cccc(N)c4)ncc3c2)cn1

IC50 [1]: > 10 µM
Molecule: Cn1cc(-c2ccc3nc(Nc4cccc(N(C(=O)C(C)(C)C)c5ccccc5)c4)ncc3c2)cn1

IC50 [1]: > 10 µM
Molecule: CC(C)(C)C(=O)N(c1ccccc1)c1cccc(Nc2ncc3cc(Br)ccc3n2)c1

IC50 [1]: > 10 µM
Molecule: CC(C)(C)C(=O)N(c1ccccc1)c1cccc(Nc2ncc3cc(-c4cn[nH]c4)ccc3n2)c1

IC50 [1]: 0.2 µM | solubility [2]: 10 µM (≈ 3.44 µg/mL) | half-life [3]: 42 min | half-life [4]: 2 min | half-life [5]: 4 min | inhibition at 10 µM (CYP1A2): 49% | inhibition at 10 µM (CYP2C9): 98% | inhibition at 10 µM (CYP2D6): 52% | inhibition at 10 µM (CYP3A4): 88%
Molecule: CC(=O)Nc1cccc(Nc2ncc3cc(-c4cn[nH]c4)ccc3n2)c1
